# Measurements as given in BindingDB's records for doi:10.1016/j.bmcl.2003.09.065 (Northwestern University, 2003).
# Assay: KI for pyridoxal 5'-phosphate (PLP)-dependent Gamma-amino-N-butyrate transaminase at pH 7.4
smiles,measurement,value
"NC1C=C(C(=O)O)OC1 (stereo unspecified) [4-Amino-4,5-dihydro-furan-2-carboxylic acid anion]",Ki,6.3 µM
